Data: patent publication US20220235057A1, “CYCLIC FORMYL AND CYCLIC KETONE COMPOUNDS, PREPARATION METHOD THEREFOR, AND PHARMACEUTICAL USE” (priority 2019, published 2022)
In brackets after ≈: the same amount, converted by molar mass.

Assays:
Assay type in all cases: cell-based
[1] = test system: drug resistant strains of Acinetobacter baumannii; experiment: anti-drug resistant strains of Acinetobacter baumannii (MIC)
[2] = test system: Zika virus (ZIKV); experiment: anti-Zika virus activity (inhibition rate); conditions: for inhibition at 11 µM / inhibition at 33 µM: Zika virus
[3] = test system: Usutu virus (USUV); experiment: anti-Usutu virus activity (inhibition rate); conditions: for inhibition at 11 µM / inhibition at 33 µM: Usutu virus
[4] = test system: dengue virus (DENV); experiment: anti-dengue virus activity (EC50)
[5] = resistant strain of Acinetobacter baumannii no. 17
[6] = resistant strain of Acinetobacter baumannii no. 18
[7] = resistant strain of Acinetobacter baumannii no. 19
[8] = resistant strain of Acinetobacter baumannii no. 20

Which results are given for O=C(NNc1ccccc1)[C@@H]1Cc2ccccc2CN1 [ZSD-16]?
MIC [1, 5]: 2 µg/mL (≈ 7.48 µM); MIC [1, 6]: 8 µg/mL (≈ 29.9 µM); MIC [1, 7]: 4 µg/mL (≈ 15 µM); MIC [1, 8]: 4 µg/mL (≈ 15 µM)

What does the source list for O=C1[C@@H]2Cc3ccccc3CN2C(c2ccc([N+](=O)[O-])cc2)N1Nc1ccccc1 (stereo partly drawn) [ZSD-18]?
inhibition at 11 µM ([2]; Drug concentration 11 μM): < 0%; inhibition at 33 µM ([2]; Drug concentration 33 μM): 0 to 100%; inhibition at 11 µM ([3]; Drug concentration 11 μM): < 0%; inhibition at 33 µM ([3]; Drug concentration 33 μM): 0 to 100%

For O=C1[C@@H]2Cc3ccccc3CN2C(c2ccc(O)cc2)N1Nc1ccccc1 (stereo partly drawn) [ZSD-20], which “Anti-ZIKV activity (inhibition rate)” value ([2]; Drug concentration 11 μM) is on record?
The value was “− (−: Inactive)”.

And the “Anti-ZIKV activity (inhibition rate)” value ([2]; Drug concentration 33 μM)?
The value was “+++ (+++: Complete suppression)”.

And the “Anti-USUV activity (inhibition rate)” value ([3]; Drug concentration 11 μM)?
The value was “− (−: Inactive)”.

And the “Anti-USUV activity (inhibition rate)” value ([3]; Drug concentration 33 μM)?
The value was “+ (+: Partial suppression)”.

With O=C1C2Cc3ccccc3CN2C(c2ccco2)N1Nc1ccccc1 (stereo not drawn) [ZSD-28B] as the compound, how does the MIC [1, 5] read?
The MIC was > 64 µg/mL.

What about the MIC [1, 6] of the same compound?
Its MIC is 8 µg/mL (≈ 23.2 µM).

And the MIC [1, 7]?
The MIC was 8 µg/mL (≈ 23.2 µM).

What about the MIC [1, 8] of the same compound?
Its MIC is 8 µg/mL (≈ 23.2 µM).

How did the “Anti-ZIKV activity (inhibition rate)” value ([2]; Drug concentration 11 μM) turn out when O=C1C2Cc3ccccc3CN2C(c2ccc(O)c(O)c2)N1Nc1ccccc1 (stereo not drawn) [ZSD-30A] was run?
Its value is “− (−: Inactive)”.

What about the “Anti-ZIKV activity (inhibition rate)” value ([2]; Drug concentration 33 μM) of the same compound?
Its value is “− (−: Inactive)”.

And the “Anti-USUV activity (inhibition rate)” value ([3]; Drug concentration 11 μM)?
The value was “− (−: Inactive)”.

And the “Anti-USUV activity (inhibition rate)” value ([3]; Drug concentration 33 μM)?
The value was “+++ (+++: Complete suppression)”.

For CC1(C)OB(c2ccc(C3N(Nc4ccccc4)C(=O)[C@@H]4Cc5ccccc5CN34)cc2)OC1(C)C (stereo partly drawn) [ZSD-32], which inhibition at 11 µM ([2]; Drug concentration 11 μM) is on record?
Its inhibition at 11 µM is < 0%.

And the inhibition at 33 µM ([2]; Drug concentration 33 μM)?
The inhibition at 33 µM was < 0%.

And the inhibition at 11 µM ([3]; Drug concentration 11 μM)?
Its inhibition at 11 µM is < 0%.

What about the inhibition at 33 µM ([3]; Drug concentration 33 μM) of the same compound?
Its inhibition at 33 µM is 0 to 100%.

How did the “Anti-ZIKV activity (inhibition rate)” value ([2]; Drug concentration 11 μM) turn out when O=C1[C@@H]2Cc3ccccc3CN2C(Cc2ccc(O)c(O)c2)N1Nc1ccccc1 (stereo partly drawn) [ZSD-36] was run?
Its value is “− (−: Inactive)”.

What about the “Anti-ZIKV activity (inhibition rate)” value ([2]; Drug concentration 33 μM) of the same compound?
The value was “− (−: Inactive)”.

What about the “Anti-USUV activity (inhibition rate)” value ([3]; Drug concentration 11 μM) of the same compound?
Its value is “− (−: Inactive)”.

And the “Anti-USUV activity (inhibition rate)” value ([3]; Drug concentration 33 μM)?
The value was “+ (+: Partial suppression)”.

Which results are given for O=C(NNc1ccccc1)C1CCCCN1 (stereo not drawn) [ZXD-2-1]?
MIC [1, 5]: 4 µg/mL (≈ 18.2 µM); MIC [1, 6]: 4 µg/mL (≈ 18.2 µM); MIC [1, 7]: 8 µg/mL (≈ 36.5 µM); MIC [1, 8]: 4 µg/mL (≈ 18.2 µM)

O=C(NNc1ccc([N+](=O)[O-])cc1)C1CCc2ccccc2N1 (stereo not drawn) [ZXD-45] was tested. Which EC50 [4] did it give?
The EC50 was 310 nM.

What does the source list for O=C(NNc1ccccc1)C1CCc2ccccc2N1C(=O)OCc1ccccc1 (stereo not drawn) [ZXD-51]?
Anti-ZIKV activity (inhibition rate) ([2]; Drug concentration 11 μM): − (−: Inactive); Anti-ZIKV activity (inhibition rate) ([2]; Drug concentration 33 μM): + (+: Partial suppression); Anti-USUV activity (inhibition rate) ([3]; Drug concentration 11 μM): − (−: Inactive); Anti-USUV activity (inhibition rate) ([3]; Drug concentration 33 μM): − (−: Inactive)

How did the inhibition at 11 µM ([2]; Drug concentration 11 μM) turn out when O=C(Nc1ccc([N+](=O)[O-])cc1)C1CCc2ccccc2N1 (stereo not drawn) [ZXD-53] was run?
The inhibition at 11 µM was < 0%.

And the inhibition at 33 µM ([2]; Drug concentration 33 μM)?
The inhibition at 33 µM was 0 to 100%.

And the inhibition at 11 µM ([3]; Drug concentration 11 μM)?
Its inhibition at 11 µM is < 0%.

What about the inhibition at 33 µM ([3]; Drug concentration 33 μM) of the same compound?
The inhibition at 33 µM was < 0%.

What does the source list for O=C(Nc1ccc([N+](=O)[O-])cc1)C1CCc2ccccc2N1C(=O)O (stereo not drawn) [ZXD-62]?
Anti-ZIKV activity (inhibition rate) ([2]; Drug concentration 11 μM): − (−: Inactive); Anti-ZIKV activity (inhibition rate) ([2]; Drug concentration 33 μM): +++ (+++: Complete suppression); Anti-USUV activity (inhibition rate) ([3]; Drug concentration 11 μM): − (−: Inactive); Anti-USUV activity (inhibition rate) ([3]; Drug concentration 33 μM): + (+: Partial suppression)

O=C1[C@@H]2CCc3ccccc3N2[C@@H](c2ccc([N+](=O)[O-])cc2)N1Nc1ccc([N+](=O)[O-])cc1 [ZXD-78A] was tested. Which EC50 [4] did it give?
Its EC50 is 170 nM.

How did the inhibition at 11 µM ([2]; Drug concentration 11 μM) turn out when O=C1[C@H]2CCc3ccccc3N2C(c2ccc(O)cc2)N1Nc1ccccc1 (stereo partly drawn) [ZXD-86A] was run?
Its inhibition at 11 µM is < 0%.

What about the inhibition at 33 µM ([2]; Drug concentration 33 μM) of the same compound?
Its inhibition at 33 µM is > 100%.

What about the inhibition at 11 µM ([3]; Drug concentration 11 μM) of the same compound?
Its inhibition at 11 µM is < 0%.

What about the inhibition at 33 µM ([3]; Drug concentration 33 μM) of the same compound?
The inhibition at 33 µM was < 0%.

O=C1[C@@H]2CCc3ccccc3N2C(c2ccc([N+](=O)[O-])c(O)c2)N1Nc1ccccc1 (stereo partly drawn) [ZXD-95] was tested. Which inhibition at 11 µM ([2]; Drug concentration 11 μM) did it give?
Its inhibition at 11 µM is 0 to 100%.

And the inhibition at 11 µM ([3]; Drug concentration 11 μM)?
The inhibition at 11 µM was < 0%.

What about the inhibition at 33 µM ([3]; Drug concentration 33 μM) of the same compound?
Its inhibition at 33 µM is 0 to 100%.

What does the source list for O=C1[C@@H]2CCc3ccccc3N2[C@@H](c2ccc(O)cc2)N1c1ccc([N+](=O)[O-])cc1 [ZXD-121]?
inhibition at 11 µM ([2]; Drug concentration 11 μM): > 100%; inhibition at 11 µM ([3]; Drug concentration 11 μM): < 0%; inhibition at 33 µM ([3]; Drug concentration 33 μM): < 0%

What does the source list for CC(C)(C)[Si](C)(C)Oc1ccc(C2N(Nc3ccccc3)C(=O)C3CCc4ccccc4N32)cc1 (stereo not drawn) [ZXD-131B]?
inhibition at 11 µM ([2]; Drug concentration 11 μM): < 0%; inhibition at 33 µM ([2]; Drug concentration 33 μM): < 0%; inhibition at 11 µM ([3]; Drug concentration 11 μM): 0 to 100%

What does the source list for COc1ccc(CC2N(Nc3ccccc3)C(=O)C3CCc4ccccc4N32)cc1OC (stereo not drawn) [ZXD-140]?
inhibition at 11 µM ([2]; Drug concentration 11 μM): 0 to 100%; inhibition at 11 µM ([3]; Drug concentration 11 μM): < 0%; inhibition at 33 µM ([3]; Drug concentration 33 μM): > 100%

What does the source list for CC(C)(C)[Si](C)(C)Oc1cccc(C2N(Nc3ccccc3)C(=O)C3CCc4ccccc4N32)c1 (stereo not drawn) [ZXD-147B]?
inhibition at 11 µM ([2]; Drug concentration 11 μM): > 100%; inhibition at 11 µM ([3]; Drug concentration 11 μM): > 100%

What does the source list for CC(C)(C)[Si](C)(C)OCc1ccc(C2N(Nc3ccccc3)C(=O)C3CCc4ccccc4N32)cc1 (stereo not drawn) [ZXD-156B]?
inhibition at 11 µM ([2]; Drug concentration 11 μM): > 100%; inhibition at 11 µM ([3]; Drug concentration 11 μM): > 100%

For O=C1C2CCc3ccccc3N2C(c2cc3ccccc3s2)N1Nc1ccccc1 (stereo not drawn) [ZXD-178A], which “Anti-ZIKV activity (inhibition rate)” value ([2]; Drug concentration 11 μM) is on record?
The value was “+++ (+++: Complete suppression)”.

What about the “Anti-USUV activity (inhibition rate)” value ([3]; Drug concentration 11 μM) of the same compound?
The value was “+ (+: Partial suppression)”.

What does the source list for O=C1C2CCc3ccccc3N2[C@@H](c2cc3ccccc3s2)N1Nc1ccccc1 (stereo partly drawn) [ZXD-178B]?
inhibition at 11 µM ([2]; Drug concentration 11 μM): > 100%; inhibition at 11 µM ([3]; Drug concentration 11 μM): 0 to 100%

How did the “Anti-ZIKV activity (inhibition rate)” value ([2]; Drug concentration 11 μM) turn out when O=C1C2CCc3ccccc3N2[C@@H](c2cccc3nonc23)N1Nc1ccccc1 (stereo partly drawn) [ZXD-181A] was run?
The value was “+++ (+++: Complete suppression)”.

What about the “Anti-ZIKV activity (inhibition rate)” value ([2]; Drug concentration 33 μM) of the same compound?
The value was “+++ (+++: Complete suppression)”.

What about the “Anti-USUV activity (inhibition rate)” value ([3]; Drug concentration 11 μM) of the same compound?
The value was “− (−: Inactive)”.

And the “Anti-USUV activity (inhibition rate)” value ([3]; Drug concentration 33 μM)?
Its value is “+ (+: Partial suppression)”.

What does the source list for CC(C)(C)[Si](C)(C)Oc1ccc(C2N(Cc3ccccc3)C(=O)C3CCc4ccccc4N32)cc1 (stereo not drawn) [ZXD-241B]?
inhibition at 11 µM ([2]; Drug concentration 11 μM): < 0%; inhibition at 33 µM ([2]; Drug concentration 33 μM): > 100%; inhibition at 11 µM ([3]; Drug concentration 11 μM): < 0%; inhibition at 33 µM ([3]; Drug concentration 33 μM): > 100%
